This is an account of results in ChEMBL document CHEMBL1122893, “Bile acids with cyclopropane-containing side chain. 2. Synthesis and properties of 3 alpha,7 beta-dihydroxy-22,23-methylene-5 beta-cholan-24-oic acid (2-sulfoethyl)amide” (J Med Chem, 1985).

Molecules are shown by their SMILES.

The assay in a line: Evaluated for critical micellular concentration (CMC) by dye solubilization method.
For `CC(CCC(=O)NCCS(=O)(=O)O)C1CC[C@H]2[C@@H]3[C@@H](O)CC4C[C@H](O)CCC4(C)[C@H]3CCC12C` (stereo partly drawn), the CMC was determined as 18 mM.
Under `CC(C1CC1C(=O)NCCS(=O)(=O)O)C1CC[C@H]2[C@@H]3[C@@H](O)CC4C[C@H](O)CCC4(C)[C@H]3CCC12C` (stereo partly drawn) stands 14.5 mM; under `CC(C1CC1C(=O)O)C1CC[C@H]2[C@@H]3[C@@H](O)CC4C[C@H](O)CCC4(C)[C@H]3CCC12C` (stereo partly drawn), 15.5 mM.
